The values that follow come from article PMC3733996 (Bioorganic & medicinal chemistry letters, 2013).

Each structure is given as a SMILES string.

The test has as its target serotonin transporter (SERT) (Rattus norvegicus, UniProt P31652). The test can be described thus: Displacement of [3H]citalopram from serotonin transporter in rat brain tissue. The format is binding. To be noted: ratio of Ki DAT / Ki SERT. A general note: Displacement assays read how much labelled ligand stays bound in the presence of the test substance.

Sequence of serotonin transporter (SERT) (P31652 whole entry): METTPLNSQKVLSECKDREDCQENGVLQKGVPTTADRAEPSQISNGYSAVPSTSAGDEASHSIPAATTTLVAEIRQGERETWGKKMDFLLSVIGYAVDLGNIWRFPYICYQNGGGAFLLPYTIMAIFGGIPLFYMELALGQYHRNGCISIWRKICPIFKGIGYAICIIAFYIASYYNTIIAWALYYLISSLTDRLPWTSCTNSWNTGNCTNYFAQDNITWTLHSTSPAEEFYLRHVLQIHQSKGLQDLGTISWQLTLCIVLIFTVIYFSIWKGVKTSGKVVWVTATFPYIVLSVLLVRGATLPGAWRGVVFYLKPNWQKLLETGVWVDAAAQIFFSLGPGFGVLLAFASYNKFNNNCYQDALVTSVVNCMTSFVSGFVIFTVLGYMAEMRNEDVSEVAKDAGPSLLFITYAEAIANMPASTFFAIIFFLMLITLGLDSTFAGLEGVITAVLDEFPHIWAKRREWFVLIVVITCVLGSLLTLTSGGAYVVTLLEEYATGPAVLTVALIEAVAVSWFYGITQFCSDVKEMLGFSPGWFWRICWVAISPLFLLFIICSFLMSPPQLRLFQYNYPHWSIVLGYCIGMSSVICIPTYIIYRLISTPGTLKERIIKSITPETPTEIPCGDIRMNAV

In the case of `Cl.Clc1ccc(COC2(c3ccc(Cl)cc3)CNC2)cc1` [6e], the DAT/SERT was 1,100. As to `Cl.Clc1ccc(COC2(c3ccc(Cl)c(Cl)c3)CNC2)cc1` [6h], the DAT/SERT is listed as 1,000.
